Test results as given in ChEMBL document CHEMBL2095176, “GSK Tuberculosis Screening Data”.
Converted amounts (≈) assume the structure as drawn.

Each compound was assayed on Mycobacterium tuberculosis variant bovis BCG (assay: microbe, parasite or virus in culture).
Format: functional

Compound	MIC90 [µM]
COc1ccc(-c2cc3nccc(C4CCNCC4)n3n2)cc1	5.7 (≈ 1.76 µg/mL)
O=C(NC(Cc1ccccc1)C(=O)Nc1ccccc1N1CCOCC1)c1cccs1 (stereo not drawn)	1.8 (≈ 0.784 µg/mL)
c1ccc2oc(CN3CCC4(CC3)OCCc3sccc34)cc2c1	2.8 (≈ 0.95 µg/mL)
O=C(Nc1nc(-c2ccccn2)cs1)c1cccc(S(=O)(=O)N2CCCCC2)c1	5.2 (≈ 2.23 µg/mL)
COc1ccc(Nc2nc(CN3CCN(Cc4ccc(C#N)cc4)CC3)cs2)cc1	8.6 (≈ 3.61 µg/mL)
O=C(Nc1cccc(C(=O)N2CCCC2c2nc3ccccc3s2)c1)c1cccs1 (stereo not drawn)	6.9 (≈ 2.99 µg/mL)
O=C(Nc1nnc(-c2ccc(Br)cc2)o1)c1cccc(C(F)(F)F)c1	1.5 (≈ 0.618 µg/mL)
CN(Cc1nc2ccccc2s1)C(=O)c1cccc(NC(=O)c2ccncc2)c1	1.7 (≈ 0.684 µg/mL)
FC(F)(F)c1ccccc1C1CCN(Cc2[nH]nc3ccccc23)CC1	6.3 (≈ 2.26 µg/mL)
O=C(NNC(=O)c1cccs1)c1cnn(-c2ccccc2)n1	4.5 (≈ 1.41 µg/mL)
CCOc1cc(OCC)c(C(=O)C(C)C)cc1C(=O)Nc1cccc2c1CCN(C)C2	9.6 (≈ 4.08 µg/mL)
FC(F)(F)c1ccc2c(N3CCCNCC3)ncc(-c3ccsc3)c2n1	1.8 (≈ 0.681 µg/mL)
CSc1cccc(-c2nnc(NC(=O)c3ccc4c(c3)CCCC4)o2)c1	7.2 (≈ 2.63 µg/mL)
Clc1ccc(-c2ccc3c(c2)CC(NCc2ccc(-n4cncn4)cc2)C3)cc1 (stereo not drawn)	6.7 (≈ 2.69 µg/mL)
C=CCNCCS(=O)(=O)c1cccc(Nc2ncc(-c3cccc(F)c3)cn2)c1	9.6 (≈ 3.96 µg/mL)
O=C(Nc1ccc(N2CCNCC2)cc1)c1ccn2ncc(-c3cccc(Cl)c3)c2n1	8.5 (≈ 3.68 µg/mL)
Cn1nc(C(=O)N2CCc3sccc3C2c2cccs2)c2ccccc2c1=O (stereo not drawn)	4.6 (≈ 1.87 µg/mL)
c1ccc(Cc2nn3c(-c4ccccc4)nnc3s2)cc1	8.2 (≈ 2.4 µg/mL)
O=C(COc1ccc(-c2ccccc2)cc1)NNC(=O)c1ccco1	2.5 (≈ 0.841 µg/mL)
O=C(C=Cc1ccccc1)Nc1nc(-c2ccccn2)cs1	3.3 (≈ 1.01 µg/mL)
NC(=O)c1cc(-c2ccsc2)ccc1OCCOc1ccccc1	2.7 (≈ 0.916 µg/mL)
c1ccc2c(Cc3nnc(Sc4ccnc(N5CCN(c6ccncc6)CC5)n4)n3CCCN3CCOCC3)c[nH]c2c1	2.2 (≈ 1.31 µg/mL)
CCc1c(C)nc(-c2cccc(C(F)(F)F)c2)nc1N1CCNCC1	8.6 (≈ 3.01 µg/mL)
COc1ccc(-c2csc(NC(=O)c3cnc(SC)nc3)n2)cc1	1.1 (≈ 0.394 µg/mL)
CCc1nnc(NC(=O)c2cccc(C(=O)Nc3nnc(CC)s3)n2)s1	1.5 (≈ 0.584 µg/mL)

Compound	MIC90 [µM]
COCc1nc(N2CCCNCC2)c2c(C)nn(-c3cccc(Cl)c3)c2n1	0.4 (≈ 0.155 µg/mL)
CC(C)c1ccc(-c2cncc(N3CCN(c4ccncc4)CC3)n2)cc1	5.1 (≈ 1.83 µg/mL)
O=C(Nc1nnc(-c2ccc(Cl)s2)o1)c1ccc(Br)s1	3 (≈ 1.17 µg/mL)
O=C(CCc1cc2ccccc2o1)NNC(=O)c1cccs1	5.1 (≈ 1.6 µg/mL)
Fc1ccc(-c2nnc3sc(Cc4ccccc4)nn23)cc1	8.6 (≈ 2.67 µg/mL)
CC(C)n1ncc2c(C(=O)NCC(c3ccco3)N3CCCC3)cc(-c3ccccc3)nc21 (stereo not drawn)	3.6 (≈ 1.6 µg/mL)
CNC(=O)c1cc(Nc2ncc(F)c(N(C)c3ccc4c(C)[nH]nc4c3)n2)ccc1OCC1CCNCC1	8.8 (≈ 4.56 µg/mL)
Cc1nc2ccccn2c1C(=O)NCc1cccs1	3.9 (≈ 1.06 µg/mL)
CCCc1cc(=O)[nH]c(-n2nc(C)cc2NC(=O)C(CC)c2ccccc2)n1 (stereo not drawn)	2.7 (≈ 1.02 µg/mL)
O=C1N(C2CCCCC2)CCS1(=O)=O	3.1 (≈ 0.674 µg/mL)
O=C(c1cc2c(s1)CCC2)N1CCN(Cc2ccc3c(c2)OCO3)CC1	9.2 (≈ 3.41 µg/mL)
CCc1cc(=O)[nH]c(-n2nc(C)cc2NC(=O)c2ccc(C(C)(C)C)cc2)n1	0.8 (≈ 0.304 µg/mL)
O=C(NNC(=O)c1cccs1)c1ccc(Oc2ccccc2)cc1	4.4 (≈ 1.49 µg/mL)
O=C(Nc1nc(-c2ccccn2)cs1)c1ccc(Oc2ccccc2)cc1	7 (≈ 2.61 µg/mL)
Cc1noc(C)c1COc1ccc(C(=O)N2CCCCC2c2nc3ccccc3s2)cc1 (stereo not drawn)	6.4 (≈ 2.86 µg/mL)
COC(=O)c1c(NC(=O)c2c(F)c(F)c(F)c(F)c2F)sc2c1CCCCC2	2 (≈ 0.839 µg/mL)
Cc1ccc2c(Cl)c(C(=O)NC3=NCCS3)sc2c1	3.8 (≈ 1.18 µg/mL)
O=C(NCc1ccc(Oc2ccccc2)cc1)c1c(C(F)(F)F)nc2ccccn12	0.2 (≈ 0.0823 µg/mL)
O=C(Nc1nc(-c2ccccn2)cs1)c1cc2c(s1)CCCCC2	3.1 (≈ 1.1 µg/mL)
CN(Cc1ccccc1)c1ccc2nnc(-c3ccccc3)n2n1	9.9 (≈ 3.12 µg/mL)
O=C(Nc1nc(-c2ccccn2)cs1)c1cccc(F)c1	2 (≈ 0.599 µg/mL)
CNc1nc(SC)nc2ccsc12	10 (≈ 2.11 µg/mL)
COc1ccc(Nc2ccccc2NC(=O)c2ccc(O)nc2)cc1	9 (≈ 3.02 µg/mL)
COc1ccc2nc(C)cc(OCC(=O)NCc3ccccc3)c2c1	3.6 (≈ 1.21 µg/mL)
Cc1[nH]n2c(=O)cc(-c3ccccc3Cl)nc2c1-c1ccccc1	8.1 (≈ 2.72 µg/mL)

Compound	MIC90 [µM]
N=C(N)c1ccc(CCN2CCC(c3nc(COCC(F)(F)F)c(-c4ccc(F)cc4)o3)CC2)cc1.O=C(O)C(F)(F)F.O=C(O)C(F)(F)F	8.2
CC1Sc2ccc(C(=O)N3CCCCC3c3nc4ccccc4s3)cc2NC1=O (stereo not drawn)	9.8 (≈ 4.15 µg/mL)
C=CCn1c(Sc2ccnc(N3CCN(c4ccncc4)CC3)n2)nnc1C(N)=O	3.3 (≈ 1.4 µg/mL)
O=C(C=Cc1cccs1)N1CCN(Cc2ccc3c(c2)OCO3)CC1	1.7 (≈ 0.606 µg/mL)
O=C(Cc1ccc(Cl)c(Cl)c1)Nc1nc(-c2ccccn2)cs1	3.2 (≈ 1.17 µg/mL)
COc1ccc(Cc2nn3c(-c4ccc(C)cc4)nnc3s2)cc1	7.5 (≈ 2.52 µg/mL)
CCN(Cc1nc2ccccc2c(=O)[nH]1)C1CCCc2cccnc21 (stereo not drawn)	4.4 (≈ 1.47 µg/mL)
c1ccc2nc(CN3CCC4(CC3)OCCc3sccc34)ccc2c1	9.1 (≈ 3.19 µg/mL)
COc1cc2ccccc2cc1C(=O)NCc1cccc(-c2ccccc2OC)c1	3.6 (≈ 1.43 µg/mL)
CSc1cccc(-c2nnc(NC(=O)c3ccc(Cl)s3)o2)c1	9.6 (≈ 3.38 µg/mL)
COc1ccc(-c2nnc3sc(Cc4ccccc4)nn23)cc1	2.7 (≈ 0.87 µg/mL)
O=C(CC1NC(=O)c2ccccc21)Nc1cccc(-c2cc(-c3c(Cl)cccc3Cl)no2)c1 (stereo not drawn)	5 (≈ 2.39 µg/mL)
CCCCC1=NN(C(=O)c2ccncc2)C(O)(C(F)(F)F)C1 (stereo not drawn)	5.5 (≈ 1.73 µg/mL)
CCc1c(C)sc2nc(C)nc(SCC(=O)NCc3ccccc3)c12	7.2 (≈ 2.68 µg/mL)
COc1ccc(CN2CCC3(CCc4ccccc43)CC2)cc1OCc1ccccc1	2.4 (≈ 0.993 µg/mL)
CC1CNC(c2ccc(NC(=O)c3ccc(C(=O)Nc4ccc(C5=NC(C)CN5)cc4)cc3)cc2)=N1 (stereo not drawn)	0.8 (≈ 0.384 µg/mL)
O=C(NCCCn1nc(Cl)c(N2CCCNCC2)cc1=O)c1ccc(-c2ccccc2)cc1	10 (≈ 4.66 µg/mL)
CCc1nc2ccccc2n1CC(O)COc1cc(C)ccc1Cl (stereo not drawn)	9.7 (≈ 3.34 µg/mL)
Fc1ccccc1-c1noc(N2CCN(Cc3ccc4c(c3)OCO4)CC2)n1	6.7 (≈ 2.56 µg/mL)
O=C(Cc1c(Cl)cccc1Cl)Nc1nc(-c2ccccn2)cs1	9.4 (≈ 3.42 µg/mL)
O=C(NNC(=O)c1[nH]nc2ccccc12)c1ccco1	8.3 (≈ 2.24 µg/mL)
CC(C)n1ncc2c(C(=O)NCC(c3cccs3)N3CCOCC3)cc(-c3ccccc3)nc21 (stereo not drawn)	2.5 (≈ 1.19 µg/mL)
COc1ccc(C2CC(=O)N(Cc3cccc(F)c3)c3ccccc3S2)cc1OC (stereo not drawn)	5.9 (≈ 2.5 µg/mL)
O=C(/C=C/c1ccccc1C(F)(F)F)Nc1ccc2c(c1)C1CCCN1CC2 (stereo not drawn)	7.3 (≈ 2.82 µg/mL)
CCCc1ccc(NC(=O)c2ccc(CN3CCN(Cc4ccsc4)CC3)cc2)cc1	5.6 (≈ 2.43 µg/mL)

Compound	MIC90 [µM]
COc1ccc(-c2ccc(Nc3cccc(S(=O)(=O)CCNCc4nccn4C)c3)nc2)cn1	4.3 (≈ 2.06 µg/mL)
CC(C)c1ccc(OCC(=O)NNC(=O)c2ccncc2)cc1	6.5 (≈ 2.04 µg/mL)
COc1ccc2nc(C)cc(OCC(=O)Nc3cc(C)cc(C)c3)c2c1	0.5 (≈ 0.175 µg/mL)
CCCCOc1ccc(NC(=O)C2CCCCC2)cc1	8.1 (≈ 2.23 µg/mL)
O=C(Nc1nc(-c2ccccn2)cs1)c1cccc(Oc2ccccc2)c1	3.4 (≈ 1.27 µg/mL)
c1coc(-c2nnc(Sc3ccnc(N4CCN(c5ccncc5)CC4)n3)n2CCCN2CCOCC2)c1	2.8 (≈ 1.49 µg/mL)
FC(F)(F)c1nnc2ccc(Cl)nn12	6.6 (≈ 1.47 µg/mL)
O=C(O)C(F)(F)F.c1ccc(C[C@H]2CN(c3nccc(Oc4ccc(-n5ccnc5)cc4)n3)CCN2)cc1	8.2
Fc1cccc2sc(Nc3nc(-c4ccccn4)cs3)nc12	2.3 (≈ 0.755 µg/mL)
CCN(CC)CCCn1c(Cc2ccccc2)nnc1Sc1ccnc(N2CCN(c3ccncc3)CC2)n1	2.9 (≈ 1.58 µg/mL)
CCc1nc(N2CCNCC2)c2c(C)nn(-c3ccc(OC)cc3)c2n1	1.1 (≈ 0.388 µg/mL)
CCCc1ccc(S(=O)(=O)Nc2ccc(CN3CCN(CC4CC4)CC3)cc2)cc1.O=C(O)C(F)(F)F.O=C(O)C(F)(F)F	8.1
O=C(COCC(=O)Nc1nc(-c2ccccn2)cs1)Nc1nc(-c2ccccn2)cs1	4 (≈ 1.81 µg/mL)
O=C(NC12CC3CC(CC(C3)C1)C2)c1cc2cc(Cl)ccc2[nH]1	0.8 (≈ 0.263 µg/mL)
CCOc1ccc(-c2nnc(NC(=O)c3cnc(Cl)c(Cl)c3)o2)cc1	9.6 (≈ 3.64 µg/mL)
CCOc1ccc(-c2nc(NC(=O)C3CCCN3S(=O)(=O)c3cccs3)sc2C)cc1 (stereo not drawn)	2 (≈ 0.955 µg/mL)
C=CCc1cc(C(=O)NC2CCC(C(C)(C)C)CC2)ccc1OC (stereo not drawn)	8.1 (≈ 2.67 µg/mL)
CCOc1ccc(C(=O)Nc2cc(Cl)c3c(c2)CNCC3)cc1C(C)=O	9.2 (≈ 3.43 µg/mL)
O=C(Nc1nncs1)c1c(O)c2ccccc2n(Cc2ccccc2)c1=O	6.9 (≈ 2.61 µg/mL)
Cc1cc(N)nc2cc(-c3ccc(CCN)cc3)ccc12	9.5 (≈ 2.64 µg/mL)
CCCn1nnnc1NC(=O)c1ccc(Cl)c(Cl)c1	7.9 (≈ 2.37 µg/mL)
COc1ccccc1NC(=O)CN(Cc1ccco1)C(=O)c1cccc(NC(=O)c2cccs2)c1	0.4 (≈ 0.196 µg/mL)
Nc1nonc1-c1nc2c(-c3ccccc3)nccc2n1C1CCNCC1	0.5 (≈ 0.181 µg/mL)
